From US10604696B2, “Process for acidizing” (Cleansorb Limited, priority 2014, dated 2020)

Assays:
[1] = Calcium salt precipitation at 5° C. from spent acidizing solutions; type: physicochemical; conditions: 2.7 g CaCO3 in 100 ml, 65 hours at approximately 25° C., then 20 hours at 5° C.
Experimental: 100 ml solutions were prepared in deionised water in 100 ml Duran bottles: 2.7 g of laboratory grade CaCO3 was added to each solution. Acidizing was allowed to proceed at room temperature (approximately 25° C.) for 65 hours. To simulate the effect of low temperature spent acidizing solutions were placed in a refrigerator at 5° C. and observed at 20 hours for the presence of any precipitate.

[2] = Calcium salt precipitation following acidising of calcium carbonate in fresh water; type: physicochemical
Source text: The dissolving capacities of delta glucono lactone and […] (a formic acid precursor commercially available from Cleansorb Limited of Guildford, UK) and their capacity for precipitation of calcium salts is shown in Table 1.

- Calcium salt precipitated at 5° C. following acidising ([1]; 10% w/v glucono delta lactone plus sodium acetate 5% w/v): No
- Calcium salt precipitated at 5° C. following acidising ([1]; 10% w/v glucono delta lactone plus sodium lactate 60% solution 10.8% w/v): No
- Calcium salt precipitated at 5° C. following acidising ([1]; 10% w/v glucono delta lactone, no additional component): Yes
- Calcium salt precipitated at 5° C. following acidising ([1]; 22% w/v glucono delta lactone plus sodium acetate 5% w/v): No
- Calcium salt precipitated at 5° C. following acidising ([1]; 22% w/v glucono delta lactone plus sodium lactate 60% solution 10.8% w/v): No
- Calcium salt precipitated at 5° C. following acidising ([1]; 22% w/v glucono delta lactone, no additional component): Yes
- Calcium salt precipitated following acidising of calcium carbonate in fresh water ([2]; acid precursor used at 1% w/v): No
- Calcium salt precipitated following acidising of calcium carbonate in fresh water ([2]; acid precursor used at 2% w/v): No
- Calcium salt precipitated following acidising of calcium carbonate in fresh water ([2]; acid precursor used at 3% w/v): Yes
- Calcium salt precipitated following acidising of calcium carbonate in fresh water ([2]; acid precursor used at 5% w/v): Yes
- Calcium salt precipitated following acidising of calcium carbonate in fresh water ([2]; acid precursor used at 10% w/v): Yes
Compound: O=C1O[C@H](CO)[C@@H](O)[C@H](O)[C@H]1O [Glucono delta lactone, D-(+)-Gluconic acid δ-lactone]
